Reference: US4501733A, “Polypeptides, a process for their preparation, their use, and a _process for the purification of polypeptides” (Ferring Arzneimittel GmbH, priority 1982, dated 1985)
Square brackets hold non-standard residues; d marks the D form. Peptide text beside a SMILES is read from it. * marks the point of attachment. Propionyl = CCC(=O)*

Assays:
ileum from guinea pigs = assay: Inhibition of SP- or Nle-SP-induced contraction of isolated guinea pig ileum (organ bath, isotonic measurement); details: for relative antagonistic potency (comparison of the antagonists): agonist 10^-8 M; for relative antagonistic potency (comparison of the antagonists) / Percentage inhibiting action: antagonist 10^-5 M; for Percentage inhibiting action: agonist SP or Nle-SP 10^-8 M, guinea pig ileum contraction; for substance P-antagonizing action: antagonist used in a concentration of 10^-5 M, agonist SP or Nle-SP
Source text: The ileum from guinea pigs was cut out after the animals had been sacrificed, was substantially freed from mesenteria by pulling at the caudal end and was freed from digestion products with Tyrode's solution. About 25 cm were discarded from the caudal end, and several sections of intestine 4 cm long were then removed and stored in Tyrode's solution. The Tyrode's solution was gassed with carbogen (95% of O2 and 5% of CO2). The Tyrode's solution contained the following substances per liter: 8 g of NaCl; […]; 1.3 g of CaCl2.2H2 O; 2.1 g of MgCl2.6H2 O; […]; 0.58 g of NaH2 PO4.1H2 O; and 11 g of D(+)-glucose.
The Tyrode's solution was thermostatically controlled at 38° C. in an organ bath. Each preparation retained its complete contractility for 4 to 7 hours. 4 cm sections of intestine were tied on both sides and suspended in the organ bath. The contractions of the preparation were recorded under isotonic measurement conditions via a lever on a Kymograph drum. The writing was done by a felt-tip pen arranged as a lateral pen. The load arm was 225 mm and the power arm 20 mm long. The pre-load was about 0.3 g and the paper speed was 5 mm/minute. The organ bath contained 10 ml.
As a rule, the test substances were added in volumes of 2 to 100 μl, and were distributed instantaneously in the organ bath by the gassing. All the test substances added were dissolved in Tyrode's solution or diluted with Tyrode's solution from a stock solution.
Test substances: substance P (Serva) or norleucine-SP (Ferring, Kiel) were used as agonists, in doses of between 10^-9 and 10^-7 M. The following compounds were tested as potential antagonists:
In the standard test, SP or Nle-SP was applied in a concentration of between 10^-9 and 10^-7 M, and was washed out after about 2 minutes. After a latency period of a further 3 minutes, the potential antagonist was applied in a concentration of 3×10^-6, 10^-5 or 3.3×10^-5 M, directly followed by a further dose of SP (Nle-SP). After renewed washing out and a waiting time of 3 minutes, SP (Nle-SP) was again applied in the same dose, in order to investigate whether the original contraction strength is reached.
The reduction in the relative contraction of the ileum preparations as a result of using SP analogs was regarded as a measure of the relative activity as antagonists.

ileum in guinea pigs = details: Folkers et al. 1981; Rosell et al. 1981; cited from earlier work
vasodilation = details: Folkers et al. 1981; Rosell et al. 1981; cited from earlier work
SP-induced salivation = details: Folkers et al. 1981; Rosell et al. 1981; cited from earlier work

Row | Compound | relative antagonistic potency (comparison of the antagonists) (ileum from guinea pigs) | Percentage inhibiting action (ileum from guinea pigs) [%] | substance P-antagonizing action (ileum from guinea pigs) | inhibition of the contraction of the ileum in guinea pigs caused by SP (ileum in guinea pigs) | inhibition of vasodilation caused by antidromic nerve stimulation and SP-induced vasodilation (vasodilation) | inhibition of SP-induced salivation (SP-induced salivation)
1 | CCC(=O)N[C@@H](CCC(N)=O)C(=O)N[C@H](Cc1c[nH]c2ccccc12)C(=O)N[C@@H](Cc1ccccc1)C(=O)N[C@H](Cc1c[nH]c2ccccc12)C(=O)N[C@@H](CC(C)C)C(=O)N[C@@H](CCSC)C(N)=O [compound 4, Propionyl-Gln-D-Trp-Phe-D-Trp-Leu-Met-NH2] (Propionyl-Q[dW]F[dW]LM-NH2) | lower but significant inhibiting action | 29.3 ± 9.5 | substance P-antagonizing action | – | – | –
2 | CSCC[C@H](NC(=O)[C@H](CC(C)C)NC(=O)[C@@H](Cc1c[nH]c2ccccc12)NC(=O)[C@H](Cc1ccccc1)NC(=O)[C@@H](Cc1c[nH]c2ccccc12)NC(=O)[C@H](CCC(N)=O)NC(=O)[C@@H](N)CCCNC(=N)N)C(N)=O [compound 2, H-Arg-Gln-D-Trp-Phe-D-Trp-Leu-Met-NH2] (H-RQ[dW]F[dW]LM-NH2) | most powerful action | 68.1 ± 8 | substance P-antagonizing action | – | – | –
3 | CSCC[C@H](NC(=O)[C@H](CC(C)C)NC(=O)[C@@H](Cc1c[nH]c2ccccc12)NC(=O)[C@H](Cc1ccccc1)NC(=O)[C@@H](Cc1c[nH]c2ccccc12)NC(=O)[C@H](CCC(N)=O)NC(=O)[C@@H]1CCCN1)C(N)=O [compound 3, H-Pro-Gln-D-Trp-Phe-D-Trp-Leu-Met-NH2] (H-PQ[dW]F[dW]LM-NH2) | most powerful action | 69.5 ± 0.5 | substance P-antagonizing action | – | – | –
4 | D-Pro^2, D-Phe^7 and D-Trp-^9 -SP | – | – | – | inhibit | inhibit | inhibit
